Legend:
[1] = Photochromic response of polymeric test squares on an optical bench; assay type: physicochemical; details: for ΔOD@ SATURATION: UV exposure continued for 20 minutes; for ΔOD@ SATURATION / ΔOD/MIN SENSITIVITY: test squares, 75°F (23.9°C); for ΔOD/MIN SENSITIVITY: measured over the first five (5) seconds of UV exposure, expressed on a per minute basis; for Bleach (T1/2): time for absorbance of the activated form in the test squares to reach one half the highest absorbance at room temperature (75°F, 23.9°C) after removal of activating light
Description: Testing was done with the photochromic naphthopyrans of the Examples incorporated into polymeric samples by the following method. The quantity of naphthopyran calculated to yield a 1.5 times 10^-3 molal solution was added to a flask containing 50 grams of a monomer blend of 4 parts ethoxylated bisphenol A dimethacrylate (BPA 2EO DMA), 1 part poly(ethylene glycol) 600 dimethacrylate, and 0.033 weight percent 2,2'-azobis(2-methyl propionitrile) (AIBN). The naphthopyran was dissolved into the monomer blend by stirring and gentle heating, if necessary. After a clear solution was obtained, it was poured into a flat sheet mold having the interior dimensions of 2.2 mm x 6 inches (15.24 cm) x 6 inches (15.24 cm). The mold was sealed and placed in a horizontal air flow, programmable oven set to increase the temperature from 40°C. to 95°C. over a 5 hour interval, hold the temperature at 95°C. for 3 hours and then lower it to 60°C. for at least 2 hours before the end of the curing cycle. After the mold was opened, the polymer sheet was cut using a diamond blade saw into 2 inch (5.1 centimeters) test squares.
The photochromic test squares prepared in Part A were tested for photochromic response rates on an optical bench. Prior to testing on the optical bench, the photochromic test squares were exposed to 365 nanometer ultraviolet light for about 15 minutes to activate the photochromic compounds and then placed into a 76°C oven for about 15 minutes to bleach or inactivate the photochromic compounds. The test squares were then cooled to room temperature, exposed to fluorescent room lighting for at least 2 hours and then kept covered for at least 2 hours prior to testing on an optical bench maintained at 75°F (23.9°C). The bench was fitted with a 150 watt Xenon arc lamp, a remote controlled shutter, a copper sulfate bath acting as a heat sink for the arc lamp, a Schott WG-320 nm cut-off filter which removes short wavelength radiation; neutral density filter(s) and a sample holder in which the square to be tested was inserted. A collimated beam of light from a tungsten lamp was passed through the square at a small angle normal to the square. After passing through the square, the light from the tungsten lamp was directed through a photopic filter attached to a detector. The photopic filter passes wavelengths such that the detector mimics the response of the human eye. The output signals from the detector(s) were processed by a radiometer.
Change in optical density (ΔOD) was determined by inserting a test square in the bleached state into the sample holder, adjusting the transmittance scale to 100%, opening the shutter from the Xenon lamp to provide ultraviolet radiation to change the test square from the bleached state to an activated (i.e., darkened) state, measuring the transmittance in the activated state, and calculating the change in optical density according to the formula A OD=log(100/%Ta) where %Ta is the percent transmittance in the activated state and the logarithm is to the base 10.
(§1) The Δ OD/Min, which represents the sensitivity of the photochromic compound's response to UV light, was measured over the first five (5) seconds of UV exposure, then expressed on a per minute basis. The saturation optical density (OD) was taken under identical conditions as the A OD/Min, except UV exposure was continued for 20 minutes for the examples in Table 1. The lambda max reported in Table 1 is the wavelength in the visible spectrum at which the maximum absorption of the activated (colored) form of the photochromic compound in a diethylene glycol bis(allyl carbonate) composition occurs. The Bleach Rate (T 1/2) is the time interval in seconds for the absorbance of the activated form of the naphthopyran in the test squares to reach one half the highest absorbance at room temperature (75°F, 23.9°C) after removal of the source of activating light.

[2] = Lambda max of the activated (colored) form in a diethylene glycol bis(allyl carbonate) composition; assay type: physicochemical; details: wavelength in the visible spectrum of maximum absorption of the activated (colored) form in a diethylene glycol bis(allyl carbonate) composition
Description: as §1

Row | SMILES | ΔOD@ SATURATION [1] | ΔOD/MIN SENSITIVITY [1] | Bleach (T1/2) [1] | LAMBDA MAX (VISIBLE) [2]
1 | COc1ccc(C2(c3ccc(OC)cc3)C=Cc3c(Sc4ccccc4)c(O)c4ccccc4c3O2)cc1 [Example 3, 2,2-bis(4-methoxyphenyl)-5-phenylthio-6-hydroxy-2H-naphtho[1,2-b]pyran] | 1.76 | 0.34 | >10 min | 516 nm
2 | COc1ccc(C2(c3ccc(OC)cc3)C=Cc3c(C)c(OC(C)=O)c4ccccc4c3O2)cc1 [Example 6, 2,2-bis(4-methoxyphenyl)-5-methyl-6-acetoxy-2H-naphtho[1,2-b]pyran] | 0.37 | 0.14 | 2 min | 506 nm
3 | COc1ccc(C2(c3ccc(OC)cc3)C=Cc3c(-c4cccn4C)c(OC(C)=O)c4ccccc4c3O2)cc1 [Example 1, 2,2-bis(4-methoxyphenyl)-5-(N-methylpyrrol-2-yl)-6-acetoxy-2H-naphtho[1,2-b]pyran] | 0.25 | 0.16 | 1.23 min | 513 nm
4 | COc1ccc(C2(c3ccc(OC)cc3)C=Cc3c(Cl)c(OC(C)=O)c4ccccc4c3O2)cc1 [Example 5, 2,2-bis(4-methoxyphenyl)-5-chloro-6-acetoxy-2H-naphtho[1,2-b]pyran] | 0.07 | 0.08 | 0.9 min | 462 nm
5 | COc1ccc(C2(c3ccc(OC)cc3)C=Cc3c(Sc4ccccc4)c(OC(C)=O)c4ccccc4c3O2)cc1 [Example 4, 2,2-bis(4-methoxyphenyl)-5-phenylthio-6-acetoxy-2H-naphtho[1,2-b]pyran] | 0.23 | 0.22 | 0.7 min | 516 nm
6 | COc1ccc(C2(c3ccc(OC)cc3)C=Cc3c(C(O)(c4ccccc4)c4ccccc4)c(O)c4ccccc4c3O2)cc1 [Example 10, 2,2-bis(4-methoxyphenyl)-5-diphenylmethylol-6-hydroxy-2H-naphtho[1,2-b]pyran] | 0.32 | 0.05 |  | 482 nm
7 | Oc1c(Sc2ccccc2)c2c(c3ccccc13)OC1(C=C2)C2CC3CC(C2)CC1C3 (stereo not drawn) [Example 7, 2,2'-spiroadamantylene-5-phenylthio-6-hydroxy-2H-naphtho[1,2-b]pyran] | 0.47 | 0.15 |  | 462 nm
8 | COc1c(C)c2c(c3ccccc13)OC1(C=C2)C2CC3CC(C2)CC1C3 (stereo not drawn) [Example 9, 2,2'-spiroadamantylene-5-methyl-6-methoxy-2H-naphtho[1,2-b]pyran] | 0.17 | 0.12 |  | 462 nm
9 | CC(=O)Oc1c(Sc2ccccc2)c2c(c3ccccc13)OC1(C=C2)C2CC3CC(C2)CC1C3 (stereo not drawn) [Example 8, 2,2'-spiroadamantylene-5-phenylthio-6-acetoxy-2H-naphtho[1,2-b]pyran] | 0.04 | 0.10 |  | 459 nm
10 | COc1ccc(C2(c3ccc(OC)cc3)C=Cc3c(-c4ccc(OC)cc4OC)c(OC(C)=O)c4ccccc4c3O2)cc1 [Example 2, 2,2-bis(4-methoxyphenyl)-5-(2,4-dimethoxyphenyl)-6-acetoxy-2H-naphtho[1,2-b]pyran] | 0.55 | 0.15 | 4.13 min | 511 nm

— patent EP0994871B1, “NOVEL SUBSTITUTED NAPHTHOPYRANS” (TRANSITIONS OPTICAL, INC., priority 1997, dated 1998)
